Laboratory results reported in patent US20240352502A1, “ANALYTICAL METHODS FOR BACTERIAL IDENTIFICATION AND ANTIBIOTIC SUSCEPTIBILITY TESTING IN BIOLOGICAL SAMPLES” (UNIVERSITY OF SCIENCE AND TECHNOLOGY OF CHINA, priority 2021, published 2024).

System: E. coli
Assay: Antibiotic susceptibility test of a single living bacterium in whole blood by single-bacterium mass spectrometry (metabolite signal change)
Format: cell-based, Escherichia coli
Conditions: E. coli from whole blood supernatant; 10 μL of 8 mg/mL kanamycin or 10 μL of 2 mg/mL norfloxacin added into 500 μL; 30 min at 37° C.; FIG. 12
Experimental: 1 mL of whole blood was taken and placed in a centrifuge tube, centrifuged at 3000 rpm for 8 min; the blood cell pellet was discarded; 10 μL of 8 mg/mL kanamycin and 10 μL of 2 mg/mL norfloxacin were respectively added into 500 μL of the supernatant containing the bacterium, and incubated with shaking at 37° C. After 30 min of incubation, the supernatant was centrifuged at 10,000 rpm for 8 min; the supernatant was discarded, and the pellet was resuspended in 100 μL of deionized water; the solution containing the bacterium not having been incubated with the antibiotic was used as a reference group, and the same operations as above were performed. […]
10 μL of 100 μM Acridine Orange as a staining agent was added into the solution containing the bacterium obtained in step (1) and step (2) to perform staining for 15 min. […] The resuspended solution containing the bacterium was dropped onto a polylysine slide and leave for 30 minutes to allow the bacterium to be adsorbed and fixed on the polylysine slide, and then the polylysine slide was rinsed with deionized water and dried at room temperature; the location of bacteria was observed under a fluorescence microscope. […]

## CCn1cc(C(=O)O)c(=O)c2cc(F)c(N3CCNCC3)cc21 [norfloxacin]
  change of alanyl-threonine (m/z 191) signal in a single bacterium after incubation with antibiotic: significantly reduced
